Measured values as given in patent US4474800A, “Epoxysuccinyl amino acid derivatives” (Taisho Pharmaceutical Co., Ltd., priority 1980, dated 1984).

What was measured:
papain = target: T1, papain (Carica papaya, UniProt P00784); assay: Papain inhibitory activity (method of K. Hanada et al.); format: biochemical; conditions: papain 80 μg/ml, Sigma, twice crystallized
T1 construct: purchased Sigma Chem. Co
T1 sequence (P00784 134-345): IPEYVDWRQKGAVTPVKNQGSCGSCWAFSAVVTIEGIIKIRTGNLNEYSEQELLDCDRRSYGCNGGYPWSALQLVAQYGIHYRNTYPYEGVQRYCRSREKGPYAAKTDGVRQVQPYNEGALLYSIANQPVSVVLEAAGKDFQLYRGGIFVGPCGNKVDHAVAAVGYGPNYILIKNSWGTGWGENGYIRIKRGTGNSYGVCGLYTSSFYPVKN
Method: Papain inhibitory activity of the compounds of the present invention was assayed by the method of K. Hanada et al. [Agric. Biol. Chem., 42, (3) 523 (1978)] using papain (80 μg/ml, Sigma Chem. Co.) after twice crystallization.

[1] = target: T2, CANP prepared from a muscle of hereditary muscular dystrophy chicken (Gallus gallus, UniProt P00789); assay: CANP inhibitory activity (method of Ishiura et al.); format: biochemical; conditions: 50% inhibition in molar ratio to the enzyme
T2 construct: from tissue; host or cells: muscle of hereditary muscular dystrophy chicken
T2 sequence (P00789 1-705): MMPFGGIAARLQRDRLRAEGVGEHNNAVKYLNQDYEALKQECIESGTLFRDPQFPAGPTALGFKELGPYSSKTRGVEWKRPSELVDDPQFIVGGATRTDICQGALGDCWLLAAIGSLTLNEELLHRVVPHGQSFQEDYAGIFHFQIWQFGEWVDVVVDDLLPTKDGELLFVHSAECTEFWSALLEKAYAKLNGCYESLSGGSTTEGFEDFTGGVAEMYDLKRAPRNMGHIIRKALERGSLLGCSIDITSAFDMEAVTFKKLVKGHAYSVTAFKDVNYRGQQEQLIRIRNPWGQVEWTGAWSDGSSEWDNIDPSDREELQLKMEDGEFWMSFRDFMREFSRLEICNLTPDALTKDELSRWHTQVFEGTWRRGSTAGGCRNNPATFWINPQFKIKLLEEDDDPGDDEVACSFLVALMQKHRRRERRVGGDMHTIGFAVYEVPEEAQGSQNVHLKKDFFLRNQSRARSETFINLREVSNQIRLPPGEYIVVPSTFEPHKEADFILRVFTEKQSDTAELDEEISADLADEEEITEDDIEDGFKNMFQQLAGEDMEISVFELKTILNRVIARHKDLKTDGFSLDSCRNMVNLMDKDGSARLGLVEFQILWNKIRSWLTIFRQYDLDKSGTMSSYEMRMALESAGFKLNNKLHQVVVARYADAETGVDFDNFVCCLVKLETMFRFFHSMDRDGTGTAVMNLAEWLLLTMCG
Method: Their muscular dystrophy inhibitory activity was assayed by the method of Ishiura et al., [J. of Biochem., 84, 225 (1978)] using CANP prepared from a muscle of hereditary muscular dystrophy chicken, and the resulting value for 50% inhibition in the molar ratios for the enzyme expressed as ID50 (mole/mole) is shown in Table 1 below.

[2] = Concentration in rat plasma after subcutaneous administration; format: in vivo; conditions: sc, rats, 50 mg/kg, an hour after administration
Method: The compounds of the present invention are better absorbed by the subcutaneous route in mammals such as rats or rabbits, as compared with the epoxysuccinic acid derivatives of the German Patent Laid Open Application described above and Chemical Abstracts, 87, 68129a (1977). To determine absorption, these compounds were administered subcutaneously to rats at a dose of 50 mg/kg, and the concentration of the test compound in rat plasma at an hour after the administration is shown in following Table 1.

Structure (SMILES) | Papain inhibitory activity ID50 (amount of inhibitor for 50% inhibition) (papain) [µg] | CANP Inhibitory Activity ID50 (mole/mole) [1] | concentration at 1 h [2] [ng/mL]
CC(C)C[C@H](NC(=O)C1OC1C(=O)OCc1ccccc1)C(=O)NCCCCCCCNC(=O)OCc1ccccc1 (mixture of isomers) [Compound 1, N-[N-(DL-3-trans-benzyloxycarbonyloxirane-2-carbonyl)-L-leucyl]-N'-benzyloxycarbonyl-1,7-diaminoheptane] | 0.302 |  | 
CC(C)C[C@H](NC(=O)C1OC1C(=O)OCc1ccccc1)C(=O)NCCCCCNC(=O)OCc1ccccc1 (mixture of isomers) [Compound 2, N-[N-(DL-3-trans-benzyloxycarbonyloxirane-2-carbonyl)-L-leucyl]-N'-benzyloxycarbonyl-1,5-diaminopentane] | 0.481 | 121 mole/mole | 1500
CC(C)C[C@H](NC(=O)C1OC1C(=O)OCc1ccccc1)C(=O)NCCNC(=O)OCc1ccccc1 (mixture of isomers) [Compound 3, N-[N-(DL-3-trans-benzyloxycarbonyloxirane-2-carbonyl)-L-leucyl]-N'-benzyloxycarbonyl-1,2-diaminoethane] | 0.203 |  | 
CC(C)[C@H](NC(=O)C1OC1C(=O)OCc1ccccc1)C(=O)NCCCCNC(=O)OCc1ccccc1 (mixture of isomers) [Compound 4, N-[N-(DL-3-trans-benzyloxycarbonyloxirane-2-carbonyl)-L-valyl]-N'-benzyloxycarbonyl-1,4-diaminobutane] | 0.436 | 113 mole/mole | 1200
CC[C@H](C)[C@H](NC(=O)C1OC1C(=O)OCc1ccccc1)C(=O)NCCCCNC(=O)OCc1ccccc1 (mixture of isomers) [Compound 5, N-[N-(DL-3-benzyloxycarbonyloxirane-2-carbonyl)-L-isoleucyl]-N'-benzyloxycarbonyl-1,4-diaminobutane] | 0.323 | 92 mole/mole | 1400
CC(C)C[C@H](NC(=O)C1OC1C(=O)OC1CCCCC1)C(=O)NCCCCNC(=O)OCc1ccccc1 (mixture of isomers) [Compound 6, N-[N-(DL-3-trans-cyclohexyloxycarbonyloxirane-2-carbonyl)-L-leucyl]-N'-benzyloxycarbonyl-1,4-diaminobutane] | 0.142 | 75 mole/mole | 1500
CC(C)C[C@H](NC(=O)C1OC1C(=O)OC1CCCC1)C(=O)NCCCCNC(=O)OCc1ccccc1 (mixture of isomers) [Compound 7, N-[N-(DL-3-trans-cyclopentyloxycarbonyloxirane-2-carbonyl)-L-leucyl]-N'-benzyloxycarbonyl-1,4-diaminobutane] | 0.164 |  | 
CC(=O)NCCCCNC(=O)[C@H](CC(C)C)NC(=O)C1OC1C(=O)OCc1ccccc1 (mixture of isomers) [Compound 8, N-[N-(DL-3-trans-benzyloxycarbonyloxirane-2-carbonyl)-L-leucyl]-N'-acetyl-1,4-diaminobutane] | 0.123 | 100 mole/mole | 1800
CC(C)C[C@H](NC(=O)C1OC1C(=O)OCc1ccccc1)C(=O)NCCCCNC(=O)c1ccccc1 (mixture of isomers) [Compound 9, N-[N-(DL-3-trans-benzyloxycarbonyloxirane-2-carbonyl)-L-leucyl]-N'-benzoyl-1,4-diaminobutane] | 0.181 | 89 mole/mole | 1300
CC(C)C[C@H](NC(=O)C1OC1C(=O)OCc1ccccc1)C(=O)NCCCCNC(=O)OCc1ccccc1 (mixture of isomers) [Compound 10, N-[N-(DL-3-trans-benzyloxycarbonyloxirane-2-carbonyl)-L-leucyl]-N'-benzyloxycarbonyl-1,4-diaminobutane] | 0.260 | 78 mole/mole | 1600
CC(C)C[C@H](NC(=O)C1OC1C(=O)O)C(=O)NCCCCNC(=O)OCc1ccccc1 (mixture of isomers) [Compound 11, N-[N-(DL-3-trans-carboxyoxirane-2-carbonyl)-L-leucyl]-N'-benzyloxycarbonyl-1,4-diaminobutane] | 0.118 | 19 mole/mole | 13000
CC(C)C[C@H](NC(=O)C1OC1C(=O)O)C(=O)NCCCCN (mixture of isomers) [Compound 12, N-[N-(DL-3-trans-carboxyoxirane-2-carbonyl)-L-leucyl]-1,4-diaminobutane] | 0.106 | 55 mole/mole | 25000
CCOC(=O)[C@H]1O[C@@H]1C(=O)O (relative stereo) [A, Ethyl hydrogen epoxysuccinate, reference compound] |  | 5,400 mole/mole | 
O=C(O)[C@H]1O[C@@H]1C(=O)OCc1ccccc1 (relative stereo) [B, Benzyl hydrogen epoxysuccinate, reference compound] |  | 410 mole/mole | 
CCOC(=O)C1OC1C(=O)N[C@@H](CC(C)C)C(=O)OCc1ccccc1 (stereo partly drawn) [C, N--(3ethoxy-carbonyloxirane-2-carbonyl)-L-leucine benzyl ester, reference compound] |  | 580 mole/mole | 
CC(C)C[C@H](NC(=O)C1OC1C(=O)O)C(=O)O (stereo partly drawn) [E, N--(3carboxyoxirane-2-carbonyl)-L-leucine, reference compound] |  | 4,600 mole/mole | 
